# Measurements reported in US10111435B2, “Herbicidal compositions containing N-(1,3,4-oxadiazol-2-yl)-aryl carboxylic acid amides” (BAYER CROPSCIENCE AKTIENGESELLSCHAFT, priority 2013, dated 2018).
# Legend:
# Assay type in all cases: in vivo
# [1] = test system: Kochia scoparia (KCHSC); assay: greenhouse post-emergence herbicidal efficacy against KCHSC
# Description: (§1) All trials whose results are shown were conducted in a greenhouse by the methodology specified below. The effect of the inventive herbicidal compositions was examined on the following harmful plants 14 and 21 days after application:
# (§2) Echinochloa crus-galli (ECHCG), Eleusine indica (ELEIN), Setaria viridis (SETVI), Amaranthus retroflexus (AMARE), Chenopodium album (CHEAL), Kochia scoparia (KCHSC), Solanum nigrum (SOLNI), Avena fatua (AVEFA), Bromus sterilis (BROST), Lolium multiflorum (LOLMU), Phalaris minor (PHAMI), Poa annua (POAAN), Galium aparine (GALAP), Matricaria inodora (MATIN) and Polygonum convolvulus (POLCO).
# (§3) The harmful plant seeds were sown in pots (diameter 8 cm) with sandy loam soil and germinated under optimal conditions. The inventive herbicidal compositions or the active ingredients alone were applied post-emergence to the planted pots with a spray volume of 300 L/ha. The trial was conducted in a greenhouse under optimum growth conditions. The herbicidal effects were assessed visually by comparison of untreated and treated plants. The percentages mean: 0%=no effects, 100%=the plants die off completely). The percentages are used to calculate interactions between individual treatments and combination treatments according to S. R. Colby, Weeds 15, pages 20 to 22 (1967).
# (§4) The abbreviations mean: • a.i.=active ingredient • E^C=expected value according to Colby (E^C=A+B−A×B/100) • Diff: =difference (%) of measured value from expected value (%) (measured value minus expected value)
# (§5) Assessment: • measured value E is greater than E^C:->synergism (+ diff.) • measured value E equals E^C:->additive effect • measured value E is smaller than E^C:->antagonism(− diff.)
# [2] = test system: Setaria viridis (SETVI); assay: greenhouse post-emergence herbicidal efficacy against SETVI; conditions: 21 days after application
# Description: as §1, §2, §3, §4, §5
# [3] = test system: Chenopodium album (CHEAL); assay: greenhouse post-emergence herbicidal efficacy against CHEAL; conditions: 21 days after application
# Description: as §1, §2, §3, §4, §5
# [4] = test system: Eleusine indica (ELEIN); assay: greenhouse post-emergence herbicidal efficacy against ELEIN
# Description: as §1, §2, §3, §4, §5
# [5] = test system: Echinochloa crus-galli (ECHCG); assay: greenhouse post-emergence herbicidal efficacy against ECHCG
# Description: as §1, §2, §3, §4, §5
# [6] = test system: Galium aparine (GALAP); assay: greenhouse post-emergence herbicidal efficacy against GALAP
# Description: as §1, §2
# as §3, with “completely).” for “completely). The percentages are used to calculate interactions between individual treatments and combination treatments according to S. R. Colby, Weeds 15, pages 20 to 22 (1967).”
# as §4, §5
# [7] = test system: Avena fatua (AVEFA); assay: greenhouse post-emergence herbicidal efficacy against AVEFA
# Description: as §1, §2
# as §3, with “completely).” for “completely). The percentages are used to calculate interactions between individual treatments and combination treatments according to S. R. Colby, Weeds 15, pages 20 to 22 (1967).”
# as §4, §5
# [8] = test system: Polygonum convolvulus (POLCO); assay: greenhouse post-emergence herbicidal efficacy against POLCO
# Description: as §1, §2
# as §3, with “completely).” for “completely). The percentages are used to calculate interactions between individual treatments and combination treatments according to S. R. Colby, Weeds 15, pages 20 to 22 (1967).”
# as §4, §5
# [9] = test system: Poa annua (POAAN); assay: greenhouse post-emergence herbicidal efficacy against POAAN
# Description: as §1, §2
# as §3, with “completely).” for “completely). The percentages are used to calculate interactions between individual treatments and combination treatments according to S. R. Colby, Weeds 15, pages 20 to 22 (1967).”
# as §4, §5
# [10] = test system: Matricaria inodora (MATIN); assay: greenhouse post-emergence herbicidal efficacy against MATIN
# Description: as §1, §2
# as §3, with “completely).” for “completely). The percentages are used to calculate interactions between individual treatments and combination treatments according to S. R. Colby, Weeds 15, pages 20 to 22 (1967).”
# as §4, §5
# [11] = test system: Phalaris minor (PHAMI); assay: greenhouse post-emergence herbicidal efficacy against PHAMI
# Description: as §1, §2
# as §3, with “completely).” for “completely). The percentages are used to calculate interactions between individual treatments and combination treatments according to S. R. Colby, Weeds 15, pages 20 to 22 (1967).”
# as §4, §5
# [12] = test system: Lolium multiflorum (LOLMU); assay: greenhouse post-emergence herbicidal efficacy against LOLMU; conditions: 14 days after application
# Description: as §1, §2
# as §3, with “completely).” for “completely). The percentages are used to calculate interactions between individual treatments and combination treatments according to S. R. Colby, Weeds 15, pages 20 to 22 (1967).”
# as §4, §5
# [13] = test system: Bromus sterilis (BROST); assay: greenhouse post-emergence herbicidal efficacy against BROST
# Description: as §1, §2
# as §3, with “completely).” for “completely). The percentages are used to calculate interactions between individual treatments and combination treatments according to S. R. Colby, Weeds 15, pages 20 to 22 (1967).”
# as §4, §5
# [14] = test system: Solanum nigrum (SOLNI); assay: greenhouse post-emergence herbicidal efficacy against SOLNI; conditions: 21 days after application, 0.5 g of a.i./ha
# Description: as §1, §2, §3, §4, §5
# [15] = 14 days after application, 2 g of a.i./ha
# [16] = 21 days after application, 0.5 g of a.i./ha
# [17] = 21 days after application, 2 g of a.i./ha
# [18] = 14 days after application, 0.5 g of a.i./ha
# [19] = 21 days after application, 1 g of a.i./ha
# [20] = 14 days after application, g of a.i./ha: A1-57 12.5, aclonifen 200
# [21] = 14 days after application, g of a.i./ha: A1-57 50, aclonifen 200
# [22] = 21 days after application, g of a.i./ha: A1-57 50, aclonifen 800
# [23] = 14 days after application, 50 g of a.i./ha
# [24] = 21 days after application, g of a.i./ha: A1-57 12.5, aclonifen 800
# [25] = 14 days after application, g of a.i./ha: A1-57 12.5, aclonifen 800
# [26] = 21 days after application, g of a.i./ha: A1-57 12.5, aclonifen 200
# [27] = 14 days after application, g of a.i./ha: A1-57 50, aclonifen 800
compound,measurement,setting,value
CS(=O)(=O)c1ccc(C(=O)C2C(=O)CCCC2=O)c(Cl)c1COCC(F)(F)F [tembotrione],Efficacy,[1]; [15],20%
same,Efficacy,[1]; [16],0%
same,Efficacy,[1]; [17],10%
same,Efficacy,[2]; 0.5 g of a.i./ha,0%
same,Efficacy,[2]; 2 g of a.i./ha,10%
same,Efficacy,[3]; 2 g of a.i./ha,30%
same,pest or weed control at 0.5 g/ha,"[4]; Eleusine indica, post-emergence, 336 h, 14 days after application, 0.5 g of a.i./ha",30%
same,pest or weed control at 2 g/ha,"[4]; Eleusine indica, post-emergence, 336 h, 14 days after application, 2 g of a.i./ha",40%
same,pest or weed control at 0.5 g/ha,"[4]; Eleusine indica, post-emergence, 504 h, 21 days after application, 0.5 g of a.i./ha",0%
same,pest or weed control at 2 g/ha,"[4]; Eleusine indica, post-emergence, 504 h, 21 days after application, 2 g of a.i./ha",10%
same,Efficacy,[5]; [18],10%
same,Efficacy,[5]; [16],10%
same,Efficacy,[5]; [17],60%
Cc1nnc(NC(=O)c2ccc(S(C)(=O)=O)c(OCCF)c2Cl)o1 [A1-57],Efficacy,"[1]; 14 days after application, 1 g of a.i./ha",40%
same,Efficacy,[1]; [19],20%
same,Efficacy,[6]; [20],30%
same,Efficacy,[6]; [21],60%
same,Efficacy,[6]; [22],40%
same,Efficacy,"[7]; 14 days after application, 12.5 g of a.i./ha",0%
same,Efficacy,[7]; [23],0%
same,Efficacy,[7]; [20],0%
same,Efficacy,[7]; [24],0%
same,Efficacy,[8]; [20],65%
same,Efficacy,[8]; [25],65%
same,Efficacy,[8]; [26],50%
same,Efficacy,[9]; [20],15%
same,Efficacy,[9]; [25],15%
same,Efficacy,[9]; [21],50%
same,Efficacy,[9]; [27],50%
same,Efficacy,[9]; [24],10%
same,Efficacy,"[9]; 21 days after application, g of a.i./ha: A1-57 50, aclonifen 200",35%
same,Efficacy,[9]; [22],35%
same,Efficacy,[10]; [20],60%
same,Efficacy,[10]; [25],60%
same,Efficacy,[10]; [27],85%
same,Efficacy,[10]; [22],80%
same,Efficacy,[11]; [20],50%
same,Efficacy,[11]; [25],50%
same,Efficacy,[11]; [21],70%
same,Efficacy,[11]; [26],20%
same,Efficacy,[11]; [24],20%
same,Efficacy,"[12]; g of a.i./ha: A1-57 12.5, aclonifen 800",0%
same,Efficacy,"[12]; g of a.i./ha: A1-57 50, aclonifen 800",35%
same,Efficacy,[3]; 1 g of a.i./ha,30%
same,Efficacy,[4]; [19],10%
same,Efficacy,[13]; [20],0%
same,Efficacy,[13]; [25],0%
same,Efficacy,[13]; [27],40%
same,Efficacy,[13]; [24],0%
same,Efficacy,[13]; [22],15%
O=C(O)CNCP(=O)(O)O [glyphosate],Efficacy,[1]; [23],30%
same,Efficacy,"[1]; 21 days after application, 50 g of a.i./ha",10%
same,Efficacy,"[1]; 21 days after application, 200 g of a.i./ha",30%
same,Efficacy,[3]; 50 g of a.i./ha,30%
same,pest or weed control at 50 g/ha,"[4]; Eleusine indica, post-emergence, 504 h, read-out: Efficacy",0%
COc1c(Cl)ccc(-c2cc(N)c(Cl)c(C(=O)O)n2)c1F [halauxifen],Efficacy,[1]; [16],20%
same,Efficacy,[1]; [17],30%
same,Efficacy,[14],50%
same,Efficacy,[2]; 2 g of a.i./ha,0%
same,Efficacy,[4]; [16],0%
same,Efficacy,[4]; [17],0%
same,Efficacy,[5]; [18],0%
same,Efficacy,[5]; [15],10%
same,Efficacy,[5]; [17],20%
